Assays:
[1] = target: Heat shock protein HSP 90-alpha (Homo sapiens, UniProt P07900)
Description: Inhibition of recombinant HSP90alpha (unknown origin) incubated for 24 hrs in presence of 1-FITC3 probe by fluorescence polarization assay

Endoplasmin = Endoplasmin (Homo sapiens, UniProt P14625); test: Inhibition of GRP94 (unknown origin)
[2] = target: T1, Heat shock protein 75 kDa, mitochondrial (Homo sapiens, UniProt Q12931); test: Inhibition of TRAP1 (unknown origin)
T1 sequence (Q12931 whole entry): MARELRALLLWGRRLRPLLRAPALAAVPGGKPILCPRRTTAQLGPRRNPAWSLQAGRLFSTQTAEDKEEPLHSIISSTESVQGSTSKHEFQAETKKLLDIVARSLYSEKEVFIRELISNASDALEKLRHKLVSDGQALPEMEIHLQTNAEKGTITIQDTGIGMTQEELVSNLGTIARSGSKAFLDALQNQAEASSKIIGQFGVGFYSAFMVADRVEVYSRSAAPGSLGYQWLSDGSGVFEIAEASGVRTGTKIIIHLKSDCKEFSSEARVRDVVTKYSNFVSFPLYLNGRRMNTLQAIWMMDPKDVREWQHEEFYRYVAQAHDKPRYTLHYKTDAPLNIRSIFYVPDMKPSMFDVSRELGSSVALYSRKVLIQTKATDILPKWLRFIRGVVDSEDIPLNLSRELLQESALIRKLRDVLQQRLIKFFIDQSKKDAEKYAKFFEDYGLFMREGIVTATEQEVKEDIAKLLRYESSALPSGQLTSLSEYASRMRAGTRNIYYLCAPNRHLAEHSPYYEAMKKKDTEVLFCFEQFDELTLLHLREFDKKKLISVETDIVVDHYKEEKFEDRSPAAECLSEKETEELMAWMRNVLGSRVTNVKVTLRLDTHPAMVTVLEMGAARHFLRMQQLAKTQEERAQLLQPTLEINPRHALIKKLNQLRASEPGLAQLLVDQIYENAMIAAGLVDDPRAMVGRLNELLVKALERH

PC-3 = test: Antiproliferative activity against human PC3 cells by MTT assay; type: functional, cell-based
HeLa = test: Antiproliferative activity against human HeLa cells by MTT assay; type: functional, cell-based

Chain of Endoplasmin (P14625 whole entry): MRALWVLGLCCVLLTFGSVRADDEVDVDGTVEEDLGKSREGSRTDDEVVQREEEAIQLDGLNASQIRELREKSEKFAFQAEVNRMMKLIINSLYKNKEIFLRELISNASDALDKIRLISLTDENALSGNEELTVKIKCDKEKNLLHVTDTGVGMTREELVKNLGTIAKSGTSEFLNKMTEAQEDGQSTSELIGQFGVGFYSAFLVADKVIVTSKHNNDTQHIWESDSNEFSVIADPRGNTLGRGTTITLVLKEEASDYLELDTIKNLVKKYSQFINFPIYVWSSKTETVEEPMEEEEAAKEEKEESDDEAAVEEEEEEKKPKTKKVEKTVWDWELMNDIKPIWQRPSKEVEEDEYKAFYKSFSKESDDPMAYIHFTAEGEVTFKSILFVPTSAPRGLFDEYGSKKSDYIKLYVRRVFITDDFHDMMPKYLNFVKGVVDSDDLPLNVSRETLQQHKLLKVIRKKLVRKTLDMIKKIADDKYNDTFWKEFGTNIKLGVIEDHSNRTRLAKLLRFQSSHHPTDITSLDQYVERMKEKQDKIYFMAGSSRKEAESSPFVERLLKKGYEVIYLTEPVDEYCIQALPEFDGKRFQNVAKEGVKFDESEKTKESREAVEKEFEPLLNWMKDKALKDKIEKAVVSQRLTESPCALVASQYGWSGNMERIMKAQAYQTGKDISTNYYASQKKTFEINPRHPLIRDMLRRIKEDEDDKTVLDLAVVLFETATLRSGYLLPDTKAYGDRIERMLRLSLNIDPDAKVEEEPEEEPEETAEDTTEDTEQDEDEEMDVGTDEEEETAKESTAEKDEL

CC(C)c1cc(-c2nn[nH]c2-c2ccc(S(C)(=O)=O)cc2)c(O)cc1O
IC50 [1]: 166 nM

CC(C)c1cc(-c2nn[nH]c2-c2ccc3c(c2)OCCO3)c(O)cc1O
IC50 [1]: 169 nM

CC(C)c1cc(-c2nnn(CC(N)=O)c2-c2ccc(S(C)(=O)=O)cc2)c(O)cc1O
IC50 [1]: 136 nM

CC(C)c1cc(-c2nnn(CC(=O)O)c2-c2ccc(S(C)(=O)=O)cc2)c(O)cc1O
IC50 [1]: 187 nM

CCOC(=O)Cn1nnc(-c2cc(C(C)C)c(O)cc2O)c1-c1cccc(S(C)(=O)=O)c1
IC50 (Endoplasmin): 96.2 nM
IC50 [2]: 35100 nM
IC50 [1]: 53.1 nM

COC(=O)Cn1nnc(-c2cc(C(C)C)c(O)cc2O)c1-c1ccc2c(c1)OCCO2
IC50 (PC-3): 234 nM
IC50 (Endoplasmin): 78 nM
IC50 [2]: 11900 nM
IC50 [1]: 47.8 nM
IC50 (HeLa): 500 nM

CCOC(=O)Cn1nnc(-c2cc(CC)c(O)cc2O)c1-c1ccc(CN2CCOCC2)cc1
IC50 [1]: 178 nM

CCc1cc(-c2nnn(CC(=O)OC)c2-c2ccc3c(c2)OCCO3)c(O)cc1O
IC50 [1]: 173 nM

COC(=O)Cn1nnc(-c2cc(C(C)C)c(O)cc2O)c1-c1ccc(CN2CCOCC2)cc1
IC50 (Endoplasmin): 197 nM
IC50 [2]: 24500 nM
IC50 [1]: 91 nM

COC(=O)Cn1nnc(-c2cc(C(C)C)c(O)cc2O)c1-c1cccc(NS(C)(=O)=O)c1
IC50 (Endoplasmin): 190 nM
IC50 [2]: 24500 nM
IC50 [1]: 78.3 nM

CCc1cc(-c2nnn(CC(=O)OC)c2-c2cccc(NS(C)(=O)=O)c2)c(O)cc1O
IC50 [1]: 184 nM

COC(=O)Cn1nnc(-c2cc(C(C)C)c(O)cc2O)c1-c1ccc(S(C)(=O)=O)cc1
IC50 (PC-3): 460 nM
IC50 (Endoplasmin): 89 nM
IC50 [2]: 16000 nM
IC50 [1]: 43.3 nM
IC50 (HeLa): > 2000 nM

CCc1cc(-c2nnn(CC(=O)OC)c2-c2cccc(S(C)(=O)=O)c2)c(O)cc1O
IC50 [1]: 154 nM

CCOC(=O)Cn1nnc(-c2cc(C(C)C)c(O)cc2O)c1-c1ccc2c(c1)OCCO2
IC50 (Endoplasmin): 192 nM
IC50 [2]: 25400 nM
IC50 [1]: 60.9 nM

CC(C)c1cc(-c2nnn(Cc3ccccc3)c2-c2ccc(S(C)(=O)=O)cc2)c(O)cc1O
IC50 (PC-3): 286 nM
IC50 (Endoplasmin): 78 nM
IC50 [2]: 8480 nM
IC50 [1]: 45.7 nM
IC50 (HeLa): 206 nM

CC(C)c1cc(-c2nnn(CC(=O)O)c2-c2cccc(S(C)(=O)=O)c2)c(O)cc1O
IC50 [1]: 173 nM

CC(C)c1cc(-c2nnn(CC(N)=O)c2-c2ccc3c(c2)OCCO3)c(O)cc1O
IC50 [1]: 134 nM

CC(C)c1cc(-c2nnn(CC(=O)O)c2-c2cccc(NS(C)(=O)=O)c2)c(O)cc1O
IC50 [1]: 767 nM

CCc1cc(-c2nnn(CC(N)=O)c2-c2ccc(S(C)(=O)=O)cc2)c(O)cc1O
IC50 [1]: 470 nM

CC(C)c1cc(-c2nn[nH]c2-c2ccccc2)c(O)cc1O
IC50 [1]: 296 nM

COC(=O)Cn1nnc(-c2cc(C(C)C)c(O)cc2O)c1-c1ccc(O)c(O)c1
IC50 [1]: 153 nM

CCOC(=O)Cn1nnc(-c2cc(CC)c(O)cc2O)c1-c1ccc(S(C)(=O)=O)cc1
IC50 [1]: 304 nM

COC(=O)Cn1nnc(-c2cc(C(C)C)c(O)cc2O)c1-c1cccc(S(C)(=O)=O)c1
IC50 (PC-3): 569 nM
IC50 (Endoplasmin): 54.1 nM
IC50 [2]: 17400 nM
IC50 [1]: 43.1 nM
IC50 (HeLa): > 2000 nM

CCOC(=O)Cn1nnc(-c2cc(CC)c(O)cc2O)c1-c1cccc(S(C)(=O)=O)c1
IC50 [1]: 161 nM

COC(=O)Cn1nnc(-c2cc(C(C)C)c(O)cc2O)c1-c1ccc(CN2CCCCC2)cc1
IC50 (Endoplasmin): 49.4 nM
IC50 [2]: 6980 nM
IC50 [1]: 57 nM

COC(=O)Cn1nnc(-c2cc(C(C)C)c(O)cc2O)c1-c1ccc(OCCN(C)C)cc1
IC50 (Endoplasmin): 175 nM
IC50 [2]: 14100 nM
IC50 [1]: 71.2 nM

CCOC(=O)Cn1nnc(-c2cc(C(C)C)c(O)cc2O)c1-c1ccc(S(C)(=O)=O)cc1
IC50 (PC-3): 324 nM
IC50 (Endoplasmin): 100 nM
IC50 [2]: 16000 nM
IC50 [1]: 41.8 nM
IC50 (HeLa): 402 nM

CCc1cc(-c2nnn(CC(=O)OC)c2-c2ccc(S(C)(=O)=O)cc2)c(O)cc1O
IC50 [1]: 214 nM

CC(C)c1cc(-c2nnn(CC(=O)O)c2-c2ccc3c(c2)OCCO3)c(O)cc1O
IC50 [1]: 176 nM

CCOC(=O)Cn1nnc(-c2cc(C(C)C)c(O)cc2O)c1-c1cccc(NS(C)(=O)=O)c1
IC50 (Endoplasmin): 209 nM
IC50 [2]: 33200 nM
IC50 [1]: 77 nM

CC(C)c1cc(-c2n[nH]c(=O)n2-c2ccc3c(ccn3C)c2)c(O)cc1O [GANETESPIB]
IC50 (PC-3): 9.3 nM
IC50 (Endoplasmin): 37.7 nM
IC50 (HeLa): 11.7 nM

CC(C)NCCCn1c(Sc2cc3c(cc2I)OCO3)nc2c(N)ncnc21 [PU-H71]
IC50 (PC-3): 363 nM
IC50 (HeLa): 226 nM

From ChEMBL document CHEMBL4613233, “Discovery of 2-((4-resorcinolyl)-5-aryl-1,2,3-triazol-1-yl)acetates as potent Hsp90 inhibitors with selectivity over TRAP1” (Bioorg Med Chem Lett, 2020)
